Entries after “also recorded” stand apart in the source; their conditions may differ.
Key:
Format in all cases: in vivo, mouse
[1] = tested on: MEXF 276 human melanoma tumor explant xenograft; experiment: MEXF 276 human melanoma tumor explant xenograft study, tumor volume and plasma MIA ELISA; details: for Tumor Volume: day 20, mean ± SE; for tumor growth inhibition: day 20
Method: (§1) MIA ELISA Assay: Equal numbers of human melanoma and colorectal carcinoma cells (˜250,000 cells for each cell line) were seeded onto tissue culture plates and the culture medium for each cell line was collected 48 hr later. Levels of MIA in culture media or plasma were measured by a commercial single-step ELISA kit according to the manufacturer's protocol (Roche Diagnostics Corporation, Indianapolis, Ind.). MIA concentrations in test samples were calculated using a standard curve ranging from 3-37 ng/ml. When the MIA concentration exceeded the highest standard concentration, the samples were diluted 1:5 and assayed again to have the results fall within the linear range of the standard curve. Data were evaluated using the Student t-test (two-tailed distribution, two-sample unequal variance), using P≦0.05 as the level of significance.
(§2) An MEXF 276 human melanoma tumor explant xenograft study and an MEXF1341 human melanoma tumor explant xenograft study were carried out as follows. The MEXF 276 human melanoma tumor cells and the MEXF1341 human melanoma tumor explant cells were originally derived from surgical specimens isolated from different melanoma patients (obtained from Oncotest GmbH, Institute for Experimental Oncology, Frieburg, Germany) and propagated as xenografts in nude mice. After removal of tumors from donor mice, samples were cut into fragments (1-2 mm diameter) and placed in RPMI 1640 medium before subcutaneous implantation into recipient male NMRI nu/nu mice (6-8 weeks old). Dosing typically began when tumors reached an average size of 6-8 mm in diameter. Animals were maintained under clean-room conditions in sterile filter-top cages and received sterile rodent chow and water ad libitum.
In a second experiment, MEXF 276 human melanoma tumor-bearing mice were randomized and dosed orally with CHIR-265 (100 or 10 mg/kg) or sorafenib (100 mg/kg) n=4/group. The first day of dosing was designated as Day 0. As such, the dosing schedule for CHIR-265 was 10 mg/kg on Day 0, 2, 4, 6, 14, 16 and 20. For CHIR-265 the dosing schedule was 100 mg/kg on Day 0, 2, 14, 16 and 20. Finally, the dosing schedule for sorafenib and PEG400 vehicle was 100 mg/kg every day on Day 0-20. […] Plasma samples were collected 4 hr after the last dose on Day 20 and stored at −80° C. prior to MIA analysis. MIA plasma levels were determined by an ELISA assay carried out as described in EXAMPLE 1.

[2] = tested on: MEXF 1341 human melanoma tumor explant xenograft; experiment: MEXF 1341 human melanoma tumor explant xenograft study, tumor volume and plasma MIA ELISA; details: for tumor growth inhibition, significance vs. vehicle: MEXF 1341 (text prints MEXF 276), P>0.08 v. vehicle; for tumor growth inhibition, significance vs. vehicle / Tumor Volume: day 20; for Tumor Volume: mean ± SE
Method: as §1, §2
In a third experiment, MEXF 1341 human melanoma tumor-bearing mice were randomized and dosed orally with CHIR-265 (100 or 10 mg/kg) or sorafenib (100 mg/kg) n=4/group. The first day of dosing was designated as Day 0. As such, the dosing schedule for CHIR-265 (10 mg/kg) was 10 mg/kg on Day 0, 2, 4, 6, 14, 16 and 20. For CHIR-265 (100 mg/kg) the dosing schedule was 100 mg/kg on Day 0, 2, 14, 16 and 20. Finally, the dosing schedule for sorafenib and PEG400 vehicle was 100 mg/kg every day on Day 0-20. […] Plasma samples were collected 4 hr after the last dose on Day 20 and stored at −80° C. prior to MIA analysis. MIA plasma levels were determined by an ELISA assay carried out as described in EXAMPLE 1.

[3] = tested on: A375M human melanoma xenograft; experiment: Kinetics of plasma MIA and tumor volume in A375M tumor-bearing mice (Example 3)
Method: as §1
(§3) An A375 human melanoma xenograft study was carried out with female athymic nu/nu mice (8-12 weeks old) purchased from Charles River Laboratories (Wilmington, Mass.). Approximately 2.5×10^6 cells were implanted subcutaneously (s.c.) into the hind flank region of mice. Plasma samples were collected when tumors reached an average size of 250 mm^3 (n=10) and stored at −80° C. prior to MIA analysis. Dosing typically began when tumors reached an average size of 250 mm^3. Caliper measurements were performed twice weekly to estimate tumor volume using the formula: (a×b^2)×0.5, where “a” is the largest diameter and “b” is the length perpendicular to the diameter.
Methods: The kinetics of MIA concentrations in plasma following drug treatment were investigated as follows. A375M tumor-bearing mice were dosed orally either with CHIR-265 (100 mg/kg), CHIR-258 (60 mg/kg) or vehicle (n=10/group). Plasma samples were collected before dosing was initiated, and again on day 3, 8 and 13. Tumor volumes were measured at the same time points, using methods described in EXAMPLE 2.

[4] = tested on: A375M human melanoma xenograft; experiment: A375M human melanoma xenograft study, tumor volume and plasma MIA ELISA (Example 2)
Method: as §1, §3
In a first experiment, A375M human melanoma tumor-bearing mice (n=5) were randomized and dosed orally with CHIR-265 at 100 mg/kg (n=5) or vehicle (n=5) once every other day. Tumor-bearing animals treated with PEG400 buffer alone were used as vehicle control. […] Plasma samples were collected 48 hours post the fourth dose (day 10) for MIA analysis by ELISA.

[5] = tested on: CHL-1 human melanoma xenograft; experiment: CHL-1 human melanoma xenograft study, tumor volume and plasma MIA ELISA (Example 4)
Method: as §1
A CHL-1 human melanoma xenograft study was carried out with female athymic nu/nu mice (8-12 weeks old) purchased from Charles River Laboratories (Wilmington, Mass.). Approximately 5×10^6 tumor cells in Matrigel™ were implanted subcutaneously (s.c.) into the hind flank region of mice. Dosing began when tumors reached an average size of 200 mm^3. Caliper measurements were performed twice weekly to estimate tumor volume using the formula: (a×b^2)×0.5, where “a” is the largest diameter and “b” is the length perpendicular to the diameter. […]

Question: `Cn1c(Nc2ccc(C(F)(F)F)cc2)nc2cc(Oc3ccnc(-c4ncc(C(F)(F)F)[nH]4)c3)ccc21` [CHIR-265, {1-Methyl-5-[2-(5-trifluoromethyl-1H-imidazol-2-yl)-pyridin-4-yloxy]-1H-benzoimidazol-2-yl}-(4-trifluoromethyl-phenyl)-amine] was tested. Which “Tumor Volume” value ([1]; CHIR-265 100 mg/kg oral, 100 mg/kg) did it give?
Answer: Its value is 19±2.9 mm^3.

Question: And the “Tumor Volume” value ([1]; CHIR-265 (10 mg/ml) per table head, 10 mg/kg in text, oral, 10 mg/kg)?
Answer: The value was 58±15.2 mm^3.

Question: What about the tumor growth inhibition ([1]; CHIR-265 at both doses (100 and 10 mg/kg)) of the same molecule?
Answer: The tumor growth inhibition was > 97%.

Question: And the “tumor growth inhibition, significance vs. vehicle” value [2]?
Answer: Its value is “did not cause significant tumor growth inhibition”.

Question: And the “Tumor Volume” value ([2]; MEXF 1341, CHIR-265 100 mg/kg oral, 100 mg/kg)?
Answer: The value was 575±214 mm^3.

Question: What about the “Tumor Volume” value ([2]; MEXF 1341, CHIR-265 (10 mg/ml) per table head, 10 mg/kg in text, oral, 10 mg/kg) of the same molecule?
Answer: The value was 1190±291 mm^3.

Question: And the “reduction in plasma MIA” value ([2]; MEXF 1341, both CHIR-265 treatments (100 and 10 mg/kg), Day 20, P<0.02)?
Answer: Its value is 2 fold.

Question: What about the “MIA plasma concentration (median)” value ([3]; CHIR-265 100 mg/kg oral, day 3, baseline 27.8) of the same molecule?
Answer: Its value is 10.4 ng/mL.

Question: What about the “reduction in MIA concentration vs. baseline” value ([3]; CHIR-265 100 mg/kg, day 3) of the same molecule?
Answer: Its value is 62%.

Question: And the tumor regression ([3]; CHIR-265 100 mg/kg, day 3)?
Answer: Its tumor regression is 29%.

Question: And the MIA plasma concentration ([3]; CHIR-265 100 mg/kg, day 13)?
Answer: The MIA plasma concentration was “undetectable”.

Question: What about the “tumor regression as compared to initial tumor volume (250 mm^3)” value ([4]; CHIR-265 100 mg/kg oral every other day, after four doses) of the same molecule?
Answer: Its value is ~50%.

Question: And the “tumor growth inhibition compared to vehicle treatment” value ([4]; CHIR-265 100 mg/kg oral every other day, day 10)?
Answer: Its value is 70%.

Question: And the “Tumor Volume” value ([4]; CHIR-265 100 mg/kg oral every other day, day 10, mean ± SE, 100 mg/kg)?
Answer: The value was 133±14.1 mm^3.

Question: And the “vehicle median MIA concentration fold higher than CHIR-265 treated mice” value ([4]; CHIR-265 100 mg/kg, day 10, n=5/group)?
Answer: The value was 17 fold.

Question: And the MIA plasma levels ([4]; after four doses of CHIR-265 100 mg/kg, plasma 48 h post fourth dose (day 10))?
Answer: The MIA plasma levels was ~4 ng/mL.

Question: Which results are given for `CN1CCN(c2ccc3[nH]c(-c4c(N)c5c(F)cccc5[nH]c4=O)nc3c2)CC1` [CHIR-258, 4-amino-5-fluoro-3-[5-(4-methylpiperazin-1-yl)-1H-benzimidazol-2-yl]quinolin-2(1H)-one]?
Answer: effect on tumor volume vs. vehicle ([5]; CHIR-258 30 mg/kg or 80 mg/kg oral once daily, by day 8, P<0.03): significant tumor growth inhibition; plasma MIA levels ([5]; both CHIR-258 groups (30 and 80 mg/kg), day 8 and subsequent time points): not detectable; change in MIA plasma concentration vs. vehicle ([3]; CHIR-258 60 mg/kg oral, day 3, 60 mg/kg): statistically significant lower levels; also recorded: statistically significant decrease in MIA plasma concentration; reduction in MIA levels compared to baseline ([3]; CHIR-258 60 mg/kg oral, day 13): 63%; effect on tumor volume / tumor burden vs. vehicle ([3]; CHIR-258 60 mg/kg oral, from day 8, 60 mg/kg): tumor growth inhibition, however regressions were not observed; also recorded: tumor growth inhibition; also recorded: statistically significant reduction in tumor burden

Question: What does the source list for `CNC(=O)c1cc(Oc2ccc(NC(=O)Nc3ccc(Cl)c(C(F)(F)F)c3)cc2)ccn1` [Sorafenib, reference compound]?
Answer: tumor growth inhibition ([1]; sorafenib 100 mg/kg every day): 69%; Tumor Volume ([1]; sorafenib 100 mg/kg oral every day): 887±196 mm^3; median plasma MIA concentration ([1]; sorafenib 100 mg/kg, plasma 4 hr after last dose on Day 20): 28.9 ng/mL; tumor growth inhibition, significance vs. vehicle [2]: did not cause significant tumor growth inhibition; Tumor Volume ([2]; MEXF 1341, sorafenib 100 mg/kg oral every day): 1338±264 mm^3; effect on plasma MIA levels ([2]; MEXF 1341, sorafenib 100 mg/kg, Day 20, P>0.17): reduced plasma MIA levels
